Assay results reported in paper PMC11854450 (RSC Chemical Biology, 2025).

Assays:
Assay in all cases: fluorogenic activity assay
Type in all cases: biochemical
active caspase-8 = active caspase-8 (Homo sapiens, UniProt Q14790); settings: 1 h pre-incubation; PBS
activeCASP10 = biological target: T1, activeCASP10 (Homo sapiens, UniProt Q92851); settings: 333 nM enzyme; 1 h pre-incubation; PBS with 333 mM citrate
T1 sequence (Q92851 220-415): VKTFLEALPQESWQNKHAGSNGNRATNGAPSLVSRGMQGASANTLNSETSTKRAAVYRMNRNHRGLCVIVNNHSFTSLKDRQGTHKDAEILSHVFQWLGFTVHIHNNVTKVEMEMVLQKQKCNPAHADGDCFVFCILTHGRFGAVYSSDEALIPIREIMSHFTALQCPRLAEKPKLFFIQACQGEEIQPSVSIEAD
T1 sequence (Q92851 416-521): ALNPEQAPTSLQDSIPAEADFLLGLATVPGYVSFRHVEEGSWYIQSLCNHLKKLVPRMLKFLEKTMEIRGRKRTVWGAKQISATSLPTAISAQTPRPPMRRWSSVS

activeCASP-3 = biological target: T2, activeCASP-3 (Homo sapiens, UniProt P42574); settings: 0.3 μM enzyme; 1 h pre-incubation; PBS
T2 sequence (P42574 29-175): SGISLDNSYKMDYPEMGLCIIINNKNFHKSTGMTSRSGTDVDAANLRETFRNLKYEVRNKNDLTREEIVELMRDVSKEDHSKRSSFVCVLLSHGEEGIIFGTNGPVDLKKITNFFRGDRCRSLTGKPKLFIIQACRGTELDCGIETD
T2 sequence (P42574 176-277): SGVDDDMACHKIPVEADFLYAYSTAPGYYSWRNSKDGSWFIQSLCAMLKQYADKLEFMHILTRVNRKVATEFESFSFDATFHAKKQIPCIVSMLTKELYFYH

active caspase-8, sequence (Q14790 217-374): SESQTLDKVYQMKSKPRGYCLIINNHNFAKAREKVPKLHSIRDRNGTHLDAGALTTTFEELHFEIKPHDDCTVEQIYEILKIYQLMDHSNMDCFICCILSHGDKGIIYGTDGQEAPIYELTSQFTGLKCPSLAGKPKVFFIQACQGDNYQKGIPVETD
active caspase-8, sequence (Q14790 385-479): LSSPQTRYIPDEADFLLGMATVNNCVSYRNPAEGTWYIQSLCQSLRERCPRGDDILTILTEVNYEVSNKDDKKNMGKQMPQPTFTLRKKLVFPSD

NS(=O)(=O)C#Cc1ccccc1 [PFTμ, pifithrin-μ]
Relative activity (active caspase-8): PFTμ also significantly inhibited active caspase-3 and active caspase-8
Relative activity (activeCASP10): we found that PFTμ inhibited both proteoforms to some degree
Relative activity (activeCASP-3): PFTμ also significantly inhibited active caspase-3 and active caspase-8
